According to article PMC11921695 (BMC Cancer, 2025):

Tested on: HIV-associated Kaposi sarcoma
Experiment: Objective response by ACTG criteria
Assay type: in vivo, human
Settings: for objective response (OR) rate: 90% CI
Description: For registered patients, pre-treatment evaluation included: physical examination, ophthalmologic exam, electrocardiogram (ECG), echocardiogram or multi-gated acquisition (MUGA) scan, chest x-ray and CT thorax, abdomen, and pelvis. Adverse events according to CTCAE version 4.0 [18] were recorded every three weeks. The burden of cutaneous disease was estimated by summed tumour area sizes (mm^2) from photographic image measurements and evaluated at baseline using ACTG criteria (Supplementary Appendix 3), with subsequent formal response assessments including clinical photographs taken every 6 weeks for 12 months or until disease progression. For patients with visceral or extensive disease, repeat CT scans at these time points were also performed.
OR rate was reported as the proportion of patients who achieved OR out of the total per-protocol population, with 90% confidence intervals (CI). Sensitivity analyses were also performed to compare this OR rate with ones that used the MTD population and the any-dose population as the denominator. The OR rate was also calculated for those who received at least six cycles of selumetinib.
The absence of any detectable residual disease, including tumour-associated oedema, persisting for at least 4 weeks.
A 50% or greater decrease in the number and/or size of previously existing lesions (skin, oral, measurable or evaluable visceral disease) lasting for at least 4 weeks without the appearance of new lesions or the appearance or worsening of tumour-associated oedema or effusions, […] of 25% or more in the product of bi-dimensional diameters of any indicator lesion.
Any response not meeting the criteria for progression or PR.

Cn1cnc2c(F)c(Nc3ccc(Br)cc3Cl)c(C(=O)NOCCO)cc21 [selumetinib, 6-(4-Bromo-2-chloro-phenylamino)-7-fluro-3-methyl-3 H-benzoimidazole-5-carboxylic acid (2-hydroxy-ethoxy)-amide hydrogen sulphate]
objective response (OR) rate (MTD population (sensitivity analysis)): 6.7% | objective response (OR) rate (any-dose/safety population (sensitivity analysis)): 6.3% | clinical benefit rate (CR, PR and SD) (any-dose/safety population, 16 patients): 75% | objective response (OR) rate (per-protocol population, 12 patients, 75 mg bd + ART): 8.3% | response duration (the only patient with PR (deepened to CR after discontinuing at 3 cycles)): 201 days
